Values quoted from earlier work in patent publication US20120322868A1, “FOOD PRODUCTS, PREPARATION, AND THERAPEUTIC METHODS” (priority 2010, published 2012).

Key:
atherosclerosis = settings: apolipoprotein E-deficient mice
[1] = test system: immunological functions and plasma albumin; settings: HIV+ patients
[2] = test system: insulin levels and insulin sensitivity; settings: hyperinsulinemic patients with polycystic ovary syndrome
cancer = settings: dietary protein, laboratory animals (Campbell)

CC(=O)N[C@@H](CS)C(=O)O [NAC, N-acetyl-L-cysteine]
atherosclerosis (atherosclerosis): reduce atherosclerosis | immunological functions and plasma albumin concentrations [1]: marked increase | insulin levels and insulin sensitivity [2]: improves insulin levels and insulin sensitivity

casein
promotion of cancer (cancer): promotes cancer
